Measurements taken from PubChem BioAssay (NCI).
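These data come from cells grown in 96-well plates and exposed to compound for 48 hours at five concentrations. TGI: concentration producing complete growth inhibition.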 Where a SMILES comes first, the peptide text is derived from it. Bridges are numbered along the chain shown (N, C = ends).

Tests used:
Assay in all cases: NCI-60 cell line screen, 48 h
OVCAR-3 ovarian = system: OVCAR-3 ovarian
PC-3 prostate = system: PC-3 prostate
MALME-3M melanoma = system: MALME-3M melanoma
MDA-MB-435 = system: MDA-MB-435
M14 melanoma = system: M14 melanoma
MOLT-4 leukemia = system: MOLT-4 leukemia
HT29 colon = system: HT29 colon
T-47D breast = system: T-47D breast
HS 578T breast = system: HS 578T breast

Row | Structure (SMILES) | TGI (OVCAR-3 ovarian) [µM] | TGI (PC-3 prostate) [µM] | TGI (MALME-3M melanoma) [µM] | TGI (MDA-MB-435) [µM] | TGI (M14 melanoma) [µM] | TGI (MOLT-4 leukemia) [µM] | TGI (HT29 colon) [µM] | TGI (T-47D breast) [µM] | TGI (HS 578T breast) [µM]
1 | O=C1OC2(CCCCC2)C(Oc2ccc(Cl)cc2)=C1F | > 100 | > 100 | 51.6 | > 100 | > 100 | 48.5 | > 100 | > 100 | > 100
2 | CNCC(SC)c1ccc(O)c(O)c1 (stereo not given) | 40.9 | > 100 | 32.4 | > 100 | > 100 | 47.2 | 99.5 | 67 | > 100
3 | COc1ccc(C2C3=C(COC3=O)Oc3cc4c(cc32)OCO4)cc1OC (stereo not given) | 6.05 | > 31.3 | > 100 | 0.751 | > 100 | > 29.9 | 13 | > 100 | 6.14
4 | C[C@H](CCc1nc(C#N)c(N)o1)[C@H]1CC[C@H]2[C@@H]3CCC4C[C@@H](O)CC[C@]4(C)[C@H]3C[C@@H](O)[C@]12C (stereo not given in full) | 27.3 | 16.3 | 28.4 | 30 | 34.2 | 20.2 | 27.7 | 30.3 | 31.6
5 | C[C@]12CC[C@H]3[C@@H](CC=C4C[C@@H](O)CC[C@@]43C)[C@@H]1C/C(=C\c1ccc([N+](=O)[O-])cc1)[C@@H]2O | 37.1 | 33.5 | 53 | > 100 | > 100 | > 100 | 20.6 | 29.5 | > 100
6 | Cc1cc(NS(=O)(=O)c2ccc(Nc3c4ccccc4nc4c(C(=O)NC(CO)(CO)CO)cccc34)cc2)no1 | > 100 | > 100 | 92.2 | > 100 | > 100 | 49 | > 100 | > 100 | 52.7
7 | COC1(C)CCC(OS(C)(=O)=O)CO1 (stereo not given) | > 100 | > 100 | > 100 | > 100 | > 100 | > 100 | > 100 | > 100 | > 100
8 | CC(=O)N1CCOC12N=NC(C)(C)O2 (stereo not given) | > 100 | > 100 | > 100 | > 100 | > 100 | > 100 | > 100 | > 100 | > 100
9 | CC(C)=CCNc1ncnc2c1ncn2CCC(=O)O | > 100 | > 100 | > 100 | > 100 | > 100 | > 100 | > 100 | > 100 | > 100
10 | CC(Cl)(CCC(Cl)C(C)(C)Cl)C(=O)CBr (stereo not given) | 29.5 | 28.2 | 24.8 | 30.6 | 21.8 | 3.81 | 32.3 | 50.7 | 58.1
11 | COc1ccc(/C=C/C(=O)c2cc(CN(C)C)c(O)c(CN(C)C)c2)cc1 | 56 | 85.8 | 54.2 | > 100 | – | > 100 | > 100 | > 100 | > 100
12 | C#CC(O)/C=C/C(O)CCCC(O)CC#CC(O)C#CCCCCC(O)/C=C/CCCC(=O)CCCCCCCCCCCCCCCC(O)C(O)C#CC(=O)O (stereo not given) | – | > 25 | > 25 | > 25 | > 25 | > 25 | > 25 | > 25 | > 25
13 | COc1ccc(-c2c(/C=N/OCC(=O)O)c3sc4ccccc4n3c2/C=N/OCC(=O)O)cc1 | > 50 | > 50 | > 50 | > 50 | > 50 | > 50 | > 50 | > 50 | > 50
14 | Cc1cc2ccccc2n2c1nc1ccc(O)cc12 | > 10 | > 10 | > 10 | > 10 | > 10 | > 10 | > 10 | > 10 | > 10
15 | COC(=O)C1CCC(=O)NCCCCC(NC(=O)C(N)CC(=O)O)C(=O)N1 (stereo not drawn) (H-Asp-Lys-Glu-OMe; lactam 2-3; configuration not given here) | > 100 | > 100 | > 100 | > 100 | > 100 | > 100 | > 100 | > 100 | > 100
16 | COC(=O)[C@@H]1C=CCN1S(=O)(=O)c1ccc(C)cc1 | > 100 | > 100 | > 100 | 39.2 | > 100 | > 100 | > 100 | > 100 | > 100
17 | COc1ccc(Cn2c(=O)c(OS(=O)(=O)C(F)(F)F)c(C)c3cc4ccccc4cc32)cc1 | > 100 | > 100 | > 100 | > 100 | > 100 | > 100 | > 100 | > 100 | > 100
18 | O=S1(=O)N=C(SCc2c[nH]c3ccccc23)N(c2ccccc2)c2ccncc21 | > 100 | > 100 | > 100 | > 100 | > 100 | > 100 | > 100 | > 100 | > 100
19 | CC1=NN(c2ccccc2)C(=O)/C1=C\c1c(C)[nH]n(-c2ccccc2)c1=O | > 100 | > 100 | > 100 | > 100 | > 100 | > 100 | > 100 | > 100 | > 100
20 | Cc1cccc(NC(=S)Nc2cccc(Cl)c2)n1 | > 100 | > 100 | > 100 | > 100 | > 100 | > 100 | > 100 | > 100 | > 100
21 | C[C@H](NC(=O)C(C)(Cc1ccc(O)cn1)NC(=O)c1ccccc1)c1ccccc1 (stereo not given in full) | > 100 | > 100 | > 100 | > 100 | > 100 | > 100 | > 100 | > 100 | > 100
22 | COC1OC(C)/C(=N/O)C2OC(C)(C)OC12 (stereo not given) | > 100 | > 100 | > 100 | > 100 | > 100 | > 100 | > 100 | > 100 | > 100
23 | CCOP(=O)(OCC)C(c1ccccc1)N(C(=O)NC(F)(F)F)c1ccc(C)cc1 (stereo not given) | > 100 | > 100 | > 100 | > 100 | > 100 | > 100 | > 100 | > 100 | > 100
